In patent publication US20190276872A1, “DETERMINATION OF INTERFERENTS IN A SAMPLE” (Roche Diagnostics Operations, Inc., priority 2016, published 2019):

How the values were obtained:
Normal plasma pool [1] = test: Thrombin time assay (Roche Thrombin Time Reagent on Roche cobas t 711), spiked normal plasma pool; conditions: for effect of spiked amount on clotting time of thrombin time (TT) assay: increasing concentrations, normal plasma sample; for TT result: normal plasma pool
Normal plasma pool [2] = test: APTT assay (Roche APTT LS on Roche cobas t 711 coagulation analyzer), spiked normal plasma pool; conditions: for effect of spiked amount on clotting time of APTT assay: increasing concentrations, normal plasma sample; for APTT result: normal plasma pool
pathological plasma pool = test: Thrombin time assay (Roche Thrombin Time Reagent on Roche cobas t 711), spiked pathological plasma pool; conditions: for TT result: pathological plasma pool
Experimental: [The source words this procedure for another target and reports this target under the same test.] A TT result of 19 s would result in a conjugated bilirubin concentration x=4.95 mg/dL. The calibration curve shown above was generated by spiking increasing amount of bilic to a normal plasma sample.

For conjugated bilirubin, the “effect of spiked amount on clotting time of thrombin time (TT) assay” value (shortened to “effect of spiked amount … (TT) assay”) (Normal plasma pool [1]) was “systematically prolonged”, the TT result (Normal plasma pool [1]; spiked at 1.00 mg/dL) was 16.70 s and the TT result (Normal plasma pool [1]; spiked at 2.00 mg/dL) was 17.40 s. For the same compound, the TT result (Normal plasma pool [1]; spiked at 3.00 mg/dL) was 17.80 s, the TT result (Normal plasma pool [1]; spiked at 4.00 mg/dL) was 18.50 s and the TT result (Normal plasma pool [1]; spiked at 5.00 mg/dL) was 19.20 s. For the same compound, the TT result (Normal plasma pool [1]; spiked at 6.00 mg/dL) was 19.50 s, the TT result (Normal plasma pool [1]; spiked at 7.00 mg/dL) was 20.00 s and the TT result (Normal plasma pool [1]; spiked at 8.00 mg/dL) was 20.50 s. The TT result (Normal plasma pool [1]; spiked at 9.00 mg/dL) was 21.30 s, the TT result (Normal plasma pool [1]; spiked at 10.00 mg/dL) was 21.70 s and the “effect of spiked amount on clotting time of APTT assay” value (from here on “effect … of APTT assay”) (Normal plasma pool [2]) was “systematically prolonged”. The APTT result (Normal plasma pool [2]; spiked at 2.00 mg/dL) was 27.90 s, the APTT result (Normal plasma pool [2]; spiked at 4.00 mg/dL) was 28.40 s and the APTT result (Normal plasma pool [2]; spiked at 6.00 mg/dL) was 29.00 s. It also gave an APTT result (Normal plasma pool [2]; spiked at 8.00 mg/dL) of 29.70 s, an APTT result (Normal plasma pool [2]; spiked at 9.00 mg/dL) of 30.00 s and an APTT result (Normal plasma pool [2]; spiked at 10.00 mg/dL) of 30.50 s. For the same compound, the APTT result (Normal plasma pool [2]; spiked at 11.00 mg/dL) was 30.70 s, the APTT result (Normal plasma pool [2]; spiked at 12.00 mg/dL) was 31.10 s and the APTT result (Normal plasma pool [2]; spiked at 13.00 mg/dL) was 31.50 s. For the same compound, the APTT result (Normal plasma pool [2]; spiked at 15.00 mg/dL) was 32.20 s.
hemoglobin was tested, and the “effect … of APTT assay” value (Normal plasma pool [2]) was “systematically shortened”, the APTT result (Normal plasma pool [2]; spiked at 130.00 mg/dL) was 28.40 s and the APTT result (Normal plasma pool [2]; spiked at 260.00 mg/dL) was 28.10 s. The APTT result (Normal plasma pool [2]; spiked at 390.00 mg/dL) was 27.90 s, the APTT result (Normal plasma pool [2]; spiked at 520.00 mg/dL) was 27.60 s and the APTT result (Normal plasma pool [2]; spiked at 650.00 mg/dL) was 27.40 s. The APTT result (Normal plasma pool [2]; spiked at 780.00 mg/dL) was 27.20 s, the APTT result (Normal plasma pool [2]; spiked at 910.00 mg/dL) was 26.70 s and the APTT result (Normal plasma pool [2]; spiked at 1040.00 mg/dL) was 26.30 s. For the same compound, the APTT result (Normal plasma pool [2]; spiked at 1170.00 mg/dL) was 26.20 s, the APTT result (Normal plasma pool [2]; spiked at 1300.00 mg/dL) was 25.70 s and the “effect of spiked amount … (TT) assay” value (pathological plasma pool; increasing concentrations, pathological plasma sample) was “systematically shortened”. For the same compound, the TT result (pathological plasma pool; spiked at 130.00 mg/dL) was 38.50 s, the TT result (pathological plasma pool; spiked at 260.00 mg/dL) was 38.10 s and the TT result (pathological plasma pool; spiked at 390.00 mg/dL) was 37.60 s. For the same compound, the TT result (pathological plasma pool; spiked at 520.00 mg/dL) was 36.70 s, the TT result (pathological plasma pool; spiked at 650.00 mg/dL) was 36.30 s and the TT result (pathological plasma pool; spiked at 780.00 mg/dL) was 35.70 s. For the same compound, the TT result (pathological plasma pool; spiked at 910.00 mg/dL) was 35.00 s, the TT result (pathological plasma pool; spiked at 1040.00 mg/dL) was 34.40 s and the TT result (pathological plasma pool; spiked at 1170.00 mg/dL) was 33.60 s. The TT result (pathological plasma pool; spiked at 1300.00 mg/dL) was 33.40 s.
`C=CC1=C(C)/C(=C/c2[nH]c(Cc3[nH]c(/C=C4\NC(=O)C(C)=C4C=C)c(C)c3CCC(=O)O)c(CCC(=O)O)c2C)NC1=O` [unconjugated bilirubin] was tested, and the “effect of spiked amount … (TT) assay” value (Normal plasma pool [1]) was “does not seem to influence thrombin time results”, the TT result (Normal plasma pool [1]; spiked at 6.60 mg/dL) was 16.30 s and the TT result (Normal plasma pool [1]; spiked at 13.20 mg/dL) was 16.30 s. It also gave a TT result (Normal plasma pool [1]; spiked at 19.80 mg/dL) of 16.00 s, a TT result (Normal plasma pool [1]; spiked at 26.40 mg/dL) of 16.40 s and a TT result (Normal plasma pool [1]; spiked at 33.00 mg/dL) of 16.40 s. It also gave a TT result (Normal plasma pool [1]; spiked at 39.60 mg/dL) of 16.40 s, a TT result (Normal plasma pool [1]; spiked at 46.20 mg/dL) of 16.40 s and a TT result (Normal plasma pool [1]; spiked at 52.80 mg/dL) of 16.60 s. For the same compound, the TT result (Normal plasma pool [1]; spiked at 59.40 mg/dL) was 16.50 s, the TT result (Normal plasma pool [1]; spiked at 66.00 mg/dL) was 16.60 s and the “effect … of APTT assay” value (Normal plasma pool [2]) was “influences APTT results only marginally”. It also gave an APTT result (Normal plasma pool [2]; spiked at 6.60 mg/dL) of 30.70 s, an APTT result (Normal plasma pool [2]; spiked at 13.20 mg/dL) of 31.10 s and an APTT result (Normal plasma pool [2]; spiked at 19.80 mg/dL) of 30.80 s. It also gave an APTT result (Normal plasma pool [2]; spiked at 26.40 mg/dL) of 30.80 s, an APTT result (Normal plasma pool [2]; spiked at 33.00 mg/dL) of 30.70 s and an APTT result (Normal plasma pool [2]; spiked at 39.60 mg/dL) of 30.50 s. It also gave an APTT result (Normal plasma pool [2]; spiked at 46.20 mg/dL) of 30.50 s, an APTT result (Normal plasma pool [2]; spiked at 52.80 mg/dL) of 30.30 s and an APTT result (Normal plasma pool [2]; spiked at 59.40 mg/dL) of 30.60 s. The APTT result (Normal plasma pool [2]; spiked at 66.00 mg/dL) was 30.30 s.
